Data on one substance can be found in patent US12403127B2, “Specifically meso-substituted porphyrins and chlorins for photodynamic therapy” (biolitec Unternehmensbeteiligungs II AG, priority 2014, dated 2025).

The subject of test [1] is HT29 (human colon adenocarcinoma cell line). In words: Cell test of photosensitizing activity (XTT cell viability after 652 nm laser irradiation) in HT29. It counts as cell-based. The settings on record: 2 or 10 μM photosensitizer, 24 h incubation, 50 J/cm^2, XTT viability 24 h after irradiation. As to the method: (§1) The photosensitizing activity was determined in the following cell lines: • HT29 (human colon adenocarcinoma cell line) • L929 (mouse fibroblast cell line) • A431 (human epidermoid carcinoma cell line) • A253 (submaxillary salivary gland, epidermoid cell line) • CAL-27 (human tongue squamous cell carcinoma cell line).
(§2) The cell lines were grown in DMEM (PAA Laboratories GmbH) supplemented with 10% heat-inactivated fetal calf serum (FCS, PAA Laboratories GmbH), 1% penicillin (10000 IU) and streptomycin (10000 μg/ml, PAA Laboratories GmbH). Cells were kept as a monolayer culture in a humidified incubator (5% CO2 in air at 37° C.).
(§3) A photosensitizer stock solution (2 mM) was performed in DMSO and was kept in the dark at 4° C. Further dilution was performed in DMEM medium without phenol red supplemented with 10% FCS to reach a final photosensitizer concentration of 2 or 10 μM, respectively.
(§4) 2·10^4 cells/ml were seeded in micro plates ([…]). Cells were incubated with fresh medium (DMEM without phenol red) containing 10% FCS with 2 or 10 μM of the photosensitizer for 24 h before light exposure. […]
(§5) The cell viability was assessed by the XTT assay. […]
(§6) The absorbance of the samples was measured with a spectrophotometer (Infinite 200, Tecan Group Ltd.) at a wavelength of 490 nm. In order to measure reference absorbance (to measure non-specific readings) a wavelength of 630-690 nm was used.

In test [2] the test system is CAL-27 (human tongue squamous cell carcinoma cell line). Briefly: Cell test of photosensitizing activity (XTT cell viability after 652 nm laser irradiation) in CAL-27. It counts as cell-based. Particulars: 2 or 10 μM photosensitizer, 24 h incubation, 50 J/cm^2, XTT viability 24 h after irradiation. As to the method:
as §1, §2, §3, §4, §5, §6
A general note: Tetrazolium dyes change colour on reduction, which living cells bring about.

“5,10,15-tris-(3-hydroxy-phenyl)-20-[4-(butyloxy)-tetra-fluorphenyl]-porphyrin [Example 7.13]”: the “photodynamic activity (photo toxicity, "Laser") in the HT29 cell line” value in test [1] is given as “lack activity”. In addition, the “PDT activity against CAL-27 cells” value in test [2] is reported as “show PDT activity”.
